This note sets out measurements from patent US20230365541A1, “INHIBITOR OF ENHANCER OF ZESTE HOMOLOGUE 2, AND USE THEREOF” (HAISCO PHARMACEUTICALS PTE. LTD., priority 2020, published 2023).

Structures can show the parent of a compound that is named as a salt.

The assay concerns the target EZH2 (Homo sapiens (Human), UniProt Q15910). The assay can be described thus: Test method for EZH2 enzyme activity. The class given is biochemical. Conditions: H3K27(21-44) and [3H]-SAM. Here is the method: The compounds were dissolved in DMSO, formulated into 10 mM solutions and serially diluted with DMSO to obtain 100-fold the final concentration. 200 nL of the solutions of the compounds was transferred to a 384-well plate (Perkin Elmer, Cat. No. 6007299) by using Echo550. EZH2 (BPS, Cat. No. 51004) was diluted with 1×assay buffer (50 mM Tris-HCl 9.0, 0.01% Tween-20, 1 mM DTT) to 2-fold the final concentration (EZH2: 3 nM). A mixed solution of H3K27(21-44) and [3H]-SAM (PerkinElmer, Lot. No. 2146246) (H3K27(21-44): 200 nM, [3H]-SAM: 100 nM) was formulated. The EZH2 diluted solution was taken and added to the 384-well plate at 10 μL/well (10 μL of 1×assay buffer was added in the control group). The plate was sealed and then incubated at room temperature for 15 minutes. 10 μL of the mixed solution of H3K27 (21-44) and [3H]-SAM was added to each well. The plate was sealed and then incubated at room temperature for 60 minutes. 50 μM of SAM (Sigma, Cat. No. A7007) was formulated at low temperature and added to the 384-well plate at 10 μL/well. The sample was taken at 25 μL/well, transferred to a flashplate and incubated at room temperature for at least 1 hour. The flashplate was washed 3 times with a plate washing liquid (dH2O+0.1% Tween-20) and read by using Microbeta. The inhibition rate was calculated in Excel according to: inhibition rate (%)=(maximum valuepositive control−detection signal value)/(maximum valuepositive control−minimum valuenegative control)*100, and IC50 values were fitted by using XL-Fit.

EZH2, sequence (Q15910 other isoform, or with tags, fused parts or gaps isoform Q15910-2): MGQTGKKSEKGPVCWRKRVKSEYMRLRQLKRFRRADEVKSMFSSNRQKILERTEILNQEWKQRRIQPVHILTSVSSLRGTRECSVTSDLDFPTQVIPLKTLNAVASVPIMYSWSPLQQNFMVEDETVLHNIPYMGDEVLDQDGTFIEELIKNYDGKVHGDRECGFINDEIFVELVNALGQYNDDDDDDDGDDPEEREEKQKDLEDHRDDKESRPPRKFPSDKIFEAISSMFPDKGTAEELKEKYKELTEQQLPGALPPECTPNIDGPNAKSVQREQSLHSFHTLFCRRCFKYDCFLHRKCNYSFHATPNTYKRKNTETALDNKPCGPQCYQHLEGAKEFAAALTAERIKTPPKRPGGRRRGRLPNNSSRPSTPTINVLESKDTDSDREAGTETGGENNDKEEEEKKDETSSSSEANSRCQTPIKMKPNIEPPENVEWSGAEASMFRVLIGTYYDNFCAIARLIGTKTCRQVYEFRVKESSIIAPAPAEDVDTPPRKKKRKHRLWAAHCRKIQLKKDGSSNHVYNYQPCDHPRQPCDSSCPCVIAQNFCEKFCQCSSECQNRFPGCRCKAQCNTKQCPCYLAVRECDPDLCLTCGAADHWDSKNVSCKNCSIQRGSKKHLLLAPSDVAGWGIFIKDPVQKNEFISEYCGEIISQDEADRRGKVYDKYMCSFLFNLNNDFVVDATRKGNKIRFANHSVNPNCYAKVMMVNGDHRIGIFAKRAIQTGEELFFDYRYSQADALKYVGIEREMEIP
EZH2, sequence (O75530 2-441 partner): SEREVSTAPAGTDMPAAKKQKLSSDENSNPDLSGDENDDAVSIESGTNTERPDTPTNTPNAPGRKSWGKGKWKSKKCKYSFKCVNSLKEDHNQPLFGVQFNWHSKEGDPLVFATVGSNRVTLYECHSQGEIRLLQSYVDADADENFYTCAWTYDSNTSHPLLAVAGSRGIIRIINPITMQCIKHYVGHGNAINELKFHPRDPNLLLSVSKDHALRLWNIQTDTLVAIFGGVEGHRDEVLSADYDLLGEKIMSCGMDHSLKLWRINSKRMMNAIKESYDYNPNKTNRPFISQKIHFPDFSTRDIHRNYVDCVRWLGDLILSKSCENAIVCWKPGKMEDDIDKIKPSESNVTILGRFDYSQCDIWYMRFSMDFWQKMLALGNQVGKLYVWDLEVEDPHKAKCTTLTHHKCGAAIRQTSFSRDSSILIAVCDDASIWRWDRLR
EZH2, sequence (Q15022 2-739 partner): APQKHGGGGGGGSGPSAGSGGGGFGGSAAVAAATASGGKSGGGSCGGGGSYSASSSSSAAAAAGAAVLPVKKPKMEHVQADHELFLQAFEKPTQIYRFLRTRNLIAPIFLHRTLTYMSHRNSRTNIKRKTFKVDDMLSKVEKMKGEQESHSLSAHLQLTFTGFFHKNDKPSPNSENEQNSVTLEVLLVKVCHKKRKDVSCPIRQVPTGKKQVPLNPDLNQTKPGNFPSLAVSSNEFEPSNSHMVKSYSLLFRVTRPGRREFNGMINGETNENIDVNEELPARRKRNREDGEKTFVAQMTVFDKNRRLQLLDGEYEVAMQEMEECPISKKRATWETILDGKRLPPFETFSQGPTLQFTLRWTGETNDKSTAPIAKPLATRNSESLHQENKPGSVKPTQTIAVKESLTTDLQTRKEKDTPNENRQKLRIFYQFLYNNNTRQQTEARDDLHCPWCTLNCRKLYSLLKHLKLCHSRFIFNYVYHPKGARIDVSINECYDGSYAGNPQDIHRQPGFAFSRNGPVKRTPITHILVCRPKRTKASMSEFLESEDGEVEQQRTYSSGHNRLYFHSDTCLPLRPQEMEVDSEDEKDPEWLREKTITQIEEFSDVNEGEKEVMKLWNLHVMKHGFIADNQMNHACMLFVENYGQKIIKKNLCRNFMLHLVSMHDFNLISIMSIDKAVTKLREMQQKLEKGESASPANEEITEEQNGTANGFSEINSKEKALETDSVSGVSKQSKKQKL
EZH2, sequence (Q09028 2-425 partner): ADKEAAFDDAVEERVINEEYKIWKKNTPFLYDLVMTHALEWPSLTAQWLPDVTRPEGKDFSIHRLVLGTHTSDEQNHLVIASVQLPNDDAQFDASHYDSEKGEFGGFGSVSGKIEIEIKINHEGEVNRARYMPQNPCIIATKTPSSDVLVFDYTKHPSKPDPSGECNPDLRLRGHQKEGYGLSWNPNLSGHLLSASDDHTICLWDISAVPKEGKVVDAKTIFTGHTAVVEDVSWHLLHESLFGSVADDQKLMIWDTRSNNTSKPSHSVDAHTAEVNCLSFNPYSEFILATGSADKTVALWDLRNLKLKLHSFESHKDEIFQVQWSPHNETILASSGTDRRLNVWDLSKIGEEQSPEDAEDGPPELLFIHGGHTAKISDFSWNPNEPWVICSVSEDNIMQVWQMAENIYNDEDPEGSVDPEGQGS
EZH2, sequence (Q6ZN18 whole entry partner): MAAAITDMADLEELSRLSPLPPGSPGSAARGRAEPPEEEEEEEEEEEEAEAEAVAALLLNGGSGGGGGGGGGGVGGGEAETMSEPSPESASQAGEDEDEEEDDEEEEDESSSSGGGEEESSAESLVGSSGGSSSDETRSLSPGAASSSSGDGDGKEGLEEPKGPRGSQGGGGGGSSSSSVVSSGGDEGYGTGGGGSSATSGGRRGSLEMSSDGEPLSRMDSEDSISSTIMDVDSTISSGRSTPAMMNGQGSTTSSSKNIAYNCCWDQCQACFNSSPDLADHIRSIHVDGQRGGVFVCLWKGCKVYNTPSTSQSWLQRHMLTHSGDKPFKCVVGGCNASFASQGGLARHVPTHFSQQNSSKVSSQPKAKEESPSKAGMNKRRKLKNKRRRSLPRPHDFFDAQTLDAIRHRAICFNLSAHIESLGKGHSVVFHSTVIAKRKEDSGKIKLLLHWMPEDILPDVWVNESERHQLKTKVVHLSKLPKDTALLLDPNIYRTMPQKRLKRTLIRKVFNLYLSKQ

For `CSc1cc(C)[nH]c(=O)c1CNC(=O)c1cc(Cl)c2c(c1C)OC(C)(C1CCC(N3CC(N(C)C)C3)CC1)O2` (single isomer, unassigned) [Compound 1, isomer 2, 7-chloro-2-(4-(3-(dimethylamino)azetidin-1-yl)cyclohexyl)-2,4-dimethyl-N-((6-methyl-4-(methylthio)-2-oxo-1,2-dihydropyridin-3-yl)methyl)benzo[d][1,3]dioxole-5-carboxamide], the IC50 was 0.6 nM.
The compound `CSc1cc(C)[nH]c(=O)c1CNC(=O)c1cc(Cl)c2c(c1C)OC(C)(C1CCC(N3CC(C#N)C3)CC1)O2` (single isomer, unassigned) [Compound 2, isomer 1, 7-chloro-2-(4-(3-cyanoazetidin-1-yl)cyclohexyl)-2,4-dimethyl-N-((6-methyl-4-(methylthio)-2-oxo-1,2-dihydropyridin-3-yl)methyl)benzo[d][1,3]dioxole-5-carboxamide] had an IC50 of 0.92 nM. This IC50 lies about 1.5-fold higher than the previous one.
In the case of `CSc1cc(C)[nH]c(=O)c1CNC(=O)c1cc(Cl)c2c(c1C)OC(C)(C1CCC(N3CC(C#N)C3)CC1)O2` (single isomer, unassigned) [Compound 2, isomer 2, 7-chloro-2-(4-(3-cyanoazetidin-1-yl)cyclohexyl)-2,4-dimethyl-N-((6-methyl-4-(methylthio)-2-oxo-1,2-dihydropyridin-3-yl)methyl)benzo[d][1,3]dioxole-5-carboxamide] it was 0.72 nM; in that of `CSc1cc(C)[nH]c(=O)c1CNC(=O)c1cc(Cl)c2c(c1C)OC(C)([C@H]1CC[C@@H](NCC3(C)COC3)CC1)O2` (single isomer, unassigned) [Compound 3, isomer 1, 7-chloro-2,4-dimethyl-N-((6-methyl-4-(methylthio)-2-oxo-1,2-dihydropyridin-3-yl)methyl)-2-(4-(((3-methyloxetan-3-yl)methyl)amino)cyclohexyl)benzo[d][1,3]dioxole-5-carboxamide trifluoroacetate], 0.65 nM.
Then `CSc1cc(C)[nH]c(=O)c1CNC(=O)c1cc(Cl)c2c(c1C)OC(C)([C@H]1CC[C@@H](NCC3(C)COC3)CC1)O2` (single isomer, unassigned) [Compound 3, isomer 2, 7-chloro-2,4-dimethyl-N-((6-methyl-4-(methylthio)-2-oxo-1,2-dihydropyridin-3-yl)methyl)-2-(4-(((3-methyloxetan-3-yl)methyl)amino)cyclohexyl)benzo[d][1,3]dioxole-5-carboxamide trifluoroacetate], with 0.51 nM; and `CSc1cc(C)[nH]c(=O)c1CNC(=O)c1cc(Cl)c2c(c1C)OC(C)(C1CCN(C(=O)C3CC(F)(F)C3)CC1)O2` (single isomer, unassigned) [Compound 5, isomer 1, 7-chloro-2-(1-(3,3-difluorocyclobutane-1-carbonyl)piperidin-4-yl)-2,4-dimethyl-N-((6-methyl-4-(methylthio)-2-oxo-1,2-dihydropyridin-3-yl)methyl)benzo[d][1,3]dioxole-5-carboxamide], with 0.58 nM; and `CSc1cc(C)[nH]c(=O)c1CNC(=O)c1cc(Cl)c2c(c1C)OC(C)([C@H]1CC[C@@H](NC(=O)C3CC(F)(F)C3)CC1)O2` (single isomer, unassigned) [Compound 6, isomer 1, 7-chloro-2-(4-(3,3-difluorocyclobutane-1-carboxamido)cyclohexyl)-2,4-dimethyl-N-((6-methyl-4-(methylthio)-2-oxo-1,2-dihydropyridin-3-yl)methyl)benzo[d][1,3]dioxole-5-carboxamide], with 0.52 nM.
`CSc1cc(C)[nH]c(=O)c1CNC(=O)c1cc(Cl)c2c(c1C)OC(C)([C@H]1CC[C@@H](NC(=O)C3CC(F)(F)C3)CC1)O2` (single isomer, unassigned) [Compound 6, isomer 2, 7-chloro-2-(4-(3,3-difluorocyclobutane-1-carboxamido)cyclohexyl)-2,4-dimethyl-N-((6-methyl-4-(methylthio)-2-oxo-1,2-dihydropyridin-3-yl)methyl)benzo[d][1,3]dioxole-5-carboxamide] yielded an IC50 of 0.64 nM.
In the case of `CSc1cc(C)[nH]c(=O)c1CNC(=O)c1cc(Cl)c2c(c1C)OC(C)(C1CCN(C(=O)C3CC3)CC1)O2` (single isomer, unassigned) [Compound 7, isomer 1, 7-chloro-2-(1-(cyclopropanecarbonyl)piperidin-4-yl)-2,4-dimethyl-N-((6-methyl-4-(methylthio)-2-oxo-1,2-dihydropyridin-3-yl)methyl)benzo[d][1,3]dioxole-5-carboxamide] it was 0.52 nM; in that of `CSc1cc(C)[nH]c(=O)c1CNC(=O)c1cc(Cl)c2c(c1C)OC(C)(C1CCC(c3cnn(C)c3)CC1)O2` (single isomer, unassigned) [Compound 8, isomer 1, 7-chloro-2,4-dimethyl-2-(4-(1-methyl-1H-pyrazol-4-yl)cyclohexyl)-N-((6-methyl-4-(methylthio)-2-oxo-1,2-dihydropyridin-3-yl)methyl)benzo[d][1,3]dioxole-5-carboxamide], 0.51 nM; in that of `CSc1cc(C)[nH]c(=O)c1CNC(=O)c1cc(Cl)c2c(c1C)OC(C)(C1CCC(c3cnn(C)c3)CC1)O2` (single isomer, unassigned) [Compound 8, isomer 2, 7-chloro-2,4-dimethyl-2-(4-(1-methyl-1H-pyrazol-4-yl)cyclohexyl)-N-((6-methyl-4-(methylthio)-2-oxo-1,2-dihydropyridin-3-yl)methyl)benzo[d][1,3]dioxole-5-carboxamide], 0.9 nM.
In the case of `CO[C@H]1C[C@H](NC2CCC(C3(C)Oc4c(Cl)cc(C(=O)NCc5c(SC)cc(C)[nH]c5=O)c(C)c4O3)CC2)C1` (single isomer, unassigned) [Compound 9, isomer 1, 7-chloro-2-(4-((trans-3-methoxycyclobutyl)amino)cyclohexyl)-2,4-dimethyl-N-((6-methyl-4-(methylthio)-2-oxo-1,2-dihydropyridin-3-yl)methyl)benzo[d][1,3]dioxole-5-carboxamide] it was 0.81 nM; in that of `CO[C@H]1C[C@H](NC2CCC(C3(C)Oc4c(Cl)cc(C(=O)NCc5c(SC)cc(C)[nH]c5=O)c(C)c4O3)CC2)C1` (single isomer, unassigned) [Compound 9, isomer 2, 7-chloro-2-(4-((trans-3-methoxycyclobutyl)amino)cyclohexyl)-2,4-dimethyl-N-((6-methyl-4-(methylthio)-2-oxo-1,2-dihydropyridin-3-yl)methyl)benzo[d][1,3]dioxole-5-carboxamide], 0.48 nM.
In the case of `CSc1cc(C)[nH]c(=O)c1CNC(=O)c1cc(Cl)c2c(c1C)OC(C)(C1CCN(CC3CC(F)(F)C3)CC1)O2` (single isomer, unassigned) [Compound 10, isomer 1, 7-chloro-2-(1-((3,3-difluorocyclobutyl)methyl)piperidin-4-yl)-2,4-dimethyl-N-((6-methyl-4-(methylthio)-2-oxo-1,2-dihydropyridin-3-yl)methyl)benzo[d][1,3]dioxole-5-carboxamide] it was 0.56 nM.
In the case of `CSc1cc(C)[nH]c(=O)c1CNC(=O)c1cc(Cl)c2c(c1C)OC(C)(C1CCN(C3CC(F)(F)C3)CC1)O2` (single isomer, unassigned) [Compound 12, isomer 1, 7-chloro-2-(1-(3,3-difluorocyclobutyl)piperidin-4-yl)-2,4-dimethyl-N-((6-methyl-4-(methylthio)-2-oxo-1,2-dihydropyridin-3-yl)methyl)benzo[d][1,3]dioxole-5-carboxamide], the half-inhibitory concentration (IC50) is 0.74 nM.
`CSc1cc(C)[nH]c(=O)c1CNC(=O)c1cc(Cl)c2c(c1C)OC(C)(C1CCC(N3CCC4(CNC(=O)C4)C3)CC1)O2` (single isomer, unassigned) [Compound 18, isomer 2, 7-chloro-2,4-dimethyl-N-((6-methyl-4-(methylthio)-2-oxo-1,2-dihydropyridin-3-yl)methyl)-2-(4-(8-oxo-2,7-diazaspiro[4.4]nonan-2-yl)cyclohexyl)benzo[d][1,3]dioxole-5-carboxamide]: the IC50 was determined as 0.78 nM.
Then `CSc1cc(C)[nH]c(=O)c1CNC(=O)c1cc(Cl)c2c(c1C)OC(C)([C@H]1CC[C@H](CNC3CC(F)(F)C3)CC1)O2` (single isomer, unassigned) [Compound 40, isomer 1, 7-chloro-2-(4-(((3,3-difluorocyclobutyl)amino)methyl)cyclohexyl)-2,4-dimethyl-N-((6-methyl-4-(methylthio)-2-oxo-1,2-dihydropyridin-3-yl)methyl)benzo[d][1,3]dioxole-5-carboxamide], with 0.61 nM.
`CSc1cc(C)[nH]c(=O)c1CNC(=O)c1cc(Cl)c2c(c1C)OC(C)([C@H]1CC[C@H](CNC3CC(F)(F)C3)CC1)O2` (single isomer, unassigned) [Compound 40, isomer 2, 7-chloro-2-(4-(((3,3-difluorocyclobutyl)amino)methyl)cyclohexyl)-2,4-dimethyl-N-((6-methyl-4-(methylthio)-2-oxo-1,2-dihydropyridin-3-yl)methyl)benzo[d][1,3]dioxole-5-carboxamide]: the IC50 was 0.51 nM.
